Literature values in patent publication US20170202932A1, “METHODS FOR INHIBITING NEURON APOPTOSIS AND NECROSIS” (NEWSOUTH INNOVATIONS PTY LIMITED, priority 2012, published 2017).

Assays:
[1] = target: T1, TRPC3 (Homo sapiens, UniProt Q13507); conditions: cited from earlier work
T1 sequence (Q13507 1-921): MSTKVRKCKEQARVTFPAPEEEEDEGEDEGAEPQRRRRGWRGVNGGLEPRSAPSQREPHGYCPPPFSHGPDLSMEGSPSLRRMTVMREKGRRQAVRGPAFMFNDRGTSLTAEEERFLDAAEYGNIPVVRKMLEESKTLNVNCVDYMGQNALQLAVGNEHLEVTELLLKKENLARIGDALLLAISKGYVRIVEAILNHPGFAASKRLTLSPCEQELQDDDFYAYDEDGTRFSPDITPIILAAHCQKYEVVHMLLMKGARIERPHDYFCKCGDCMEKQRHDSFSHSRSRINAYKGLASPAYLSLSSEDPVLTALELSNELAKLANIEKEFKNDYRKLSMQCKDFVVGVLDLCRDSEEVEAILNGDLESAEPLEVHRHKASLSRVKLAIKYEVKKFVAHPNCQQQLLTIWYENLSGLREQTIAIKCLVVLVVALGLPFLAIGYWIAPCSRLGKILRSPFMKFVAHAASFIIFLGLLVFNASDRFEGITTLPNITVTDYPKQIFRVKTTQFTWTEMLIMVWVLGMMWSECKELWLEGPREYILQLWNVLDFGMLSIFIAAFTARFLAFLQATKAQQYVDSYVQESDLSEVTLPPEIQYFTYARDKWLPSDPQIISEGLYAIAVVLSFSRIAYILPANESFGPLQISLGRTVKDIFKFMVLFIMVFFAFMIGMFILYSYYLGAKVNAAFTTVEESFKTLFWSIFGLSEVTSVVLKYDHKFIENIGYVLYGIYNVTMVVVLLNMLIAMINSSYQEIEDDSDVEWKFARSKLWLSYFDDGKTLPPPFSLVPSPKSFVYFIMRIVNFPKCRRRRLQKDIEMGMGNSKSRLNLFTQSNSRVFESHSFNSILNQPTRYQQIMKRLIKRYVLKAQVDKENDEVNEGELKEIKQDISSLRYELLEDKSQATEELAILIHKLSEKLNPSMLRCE

[2] = system: other TRPC channels; conditions: cited from earlier work

CCOC(=O)c1cnn(-c2ccc(NC(=O)C(Cl)=C(Cl)Cl)cc2)c1C(F)(F)F [Pyr3, ethyl-1-(4-(2,3,3-trichloroacrylamide)phenyl)-5-(trifluoromethyl)-1H-pyrazole-4-carboxylate]
inhibition of TRPC3-mediated Ca2+ influx [1]: selectively inhibit
effect on other TRPC channels [2]: no effect
